Literature values in patent US20120059599A1, “HYBRID FRAGMENT-LIGAND MODELING FOR C[…] COMPOUNDS” (UNIVERSITY OF LOUISVILLE, priority 2010, published 2012).

Experiments:
Salmonella = details: reported in the CPDB
mammary = details: reported in the CPDB
humans = details: IARC
experimental animals = details: IARC
estrogen receptor = details: has been demonstrated
[1] = has been demonstrated

For `Cn1c(N)nc2ncc(-c3ccccc3)cc21` [PhIP, 2-amino-1-methyl-6-phenylimidazo[4,5-b]pyridine], the Salmonella mutagenicity (Salmonella) is given as “mutagen”, the mammary carcinogenicity (mammary) is given as “mammary carcinogen” and the “evidence to determine carcinogenicity in humans” value (humans) is given as “inadequate evidence”. The “evidence for carcinogenicity in experimental animals” value (experimental animals) was “antiquated evidence”, the estrogen receptor ligand (estrogen receptor) was “estrogen receptor ligand” and the genotoxic carcinogen [1] was “genotoxic carcinogen”.

In the case of `CCNc1nc(Cl)nc(NC(C)C)n1` [Atrazine], the Salmonella mutagenicity (Salmonella) is listed as “non-mutagen”.
